Measured values as given in publication PMC8301576 (Clinical and Translational Science, 2021).
Several values for one entry are separate records, joined by “and”; a condition that tells them apart may be missing. Equal entries are not always repeated. Where two headings read alike, the source gives them in different places. Values belong to the compound of their own block, whether it stands above or below them.

What was measured:
[1] = Trial 1: plasma pharmacokinetics in healthy subjects; assay type: in vivo, human
[2] = Trial 2: plasma pharmacokinetics in healthy subjects; assay type: in vivo, human; settings: 48 h postdose after 7 days 300 mg TLV q.d.
[3] = Earlier clinical data on TLV and DM-4103; assay type: in vivo, human; settings: from elimination half-life
[4] = Plasma protein binding; assay type: in vitro ADME
[5] = biological target: T1, OAT3 (Homo sapiens, UniProt Q8TCC7); experiment: Trial 2: clinical DDI, furosemide in presence of DM-4103 vs furosemide alone; assay type: in vivo; settings: at clinically relevant concentrations
T1 sequence (Q8TCC7 1-542): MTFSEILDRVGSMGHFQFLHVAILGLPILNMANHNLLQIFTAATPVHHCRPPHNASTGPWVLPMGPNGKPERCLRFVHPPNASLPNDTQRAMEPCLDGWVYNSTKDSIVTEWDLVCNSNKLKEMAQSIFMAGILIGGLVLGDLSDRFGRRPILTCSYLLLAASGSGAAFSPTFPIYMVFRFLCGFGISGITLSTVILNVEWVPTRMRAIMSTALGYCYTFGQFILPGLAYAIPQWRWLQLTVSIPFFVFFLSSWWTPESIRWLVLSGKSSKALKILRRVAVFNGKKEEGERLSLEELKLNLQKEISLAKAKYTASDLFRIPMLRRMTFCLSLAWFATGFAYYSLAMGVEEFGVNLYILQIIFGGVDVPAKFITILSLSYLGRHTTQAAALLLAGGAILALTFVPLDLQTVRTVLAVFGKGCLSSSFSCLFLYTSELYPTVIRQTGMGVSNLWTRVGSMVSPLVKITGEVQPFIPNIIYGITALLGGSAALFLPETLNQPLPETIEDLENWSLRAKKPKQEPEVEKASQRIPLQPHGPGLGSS

[6] = cited from earlier work
[7] = biological target: T2, OATP1B1 (Homo sapiens, UniProt Q9Y6L6); assay type: in vivo
T2 sequence (Q9Y6L6 1-691): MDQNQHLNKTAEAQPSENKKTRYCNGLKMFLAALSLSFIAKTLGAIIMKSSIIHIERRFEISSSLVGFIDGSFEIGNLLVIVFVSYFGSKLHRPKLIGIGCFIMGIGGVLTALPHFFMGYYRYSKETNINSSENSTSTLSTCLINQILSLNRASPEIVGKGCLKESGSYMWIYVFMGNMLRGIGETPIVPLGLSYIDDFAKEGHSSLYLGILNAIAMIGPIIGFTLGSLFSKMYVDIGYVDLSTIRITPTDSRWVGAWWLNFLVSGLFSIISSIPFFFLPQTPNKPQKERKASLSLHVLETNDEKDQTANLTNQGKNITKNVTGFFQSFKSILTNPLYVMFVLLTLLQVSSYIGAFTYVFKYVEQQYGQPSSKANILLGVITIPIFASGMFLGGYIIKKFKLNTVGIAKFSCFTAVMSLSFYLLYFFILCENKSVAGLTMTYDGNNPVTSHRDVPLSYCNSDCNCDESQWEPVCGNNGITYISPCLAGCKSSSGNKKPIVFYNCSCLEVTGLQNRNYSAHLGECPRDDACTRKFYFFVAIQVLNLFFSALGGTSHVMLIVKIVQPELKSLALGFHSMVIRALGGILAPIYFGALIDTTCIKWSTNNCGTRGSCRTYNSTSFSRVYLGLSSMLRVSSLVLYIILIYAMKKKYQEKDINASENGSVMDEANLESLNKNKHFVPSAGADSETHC

[8] = Trial 2: treatment-emergent adverse events; assay type: in vivo, human
[9] = test system: sodium‐dependent taurocholate co‐transporting polypeptide (NTCP); settings: cited from earlier work
[10] = biological target: T3, BCRP (Homo sapiens, UniProt Q9UNQ0); experiment: Trial 1: clinical DDI, rosuvastatin with TLV vs rosuvastatin alone; assay type: in vivo
T3 sequence (Q9UNQ0 1-655): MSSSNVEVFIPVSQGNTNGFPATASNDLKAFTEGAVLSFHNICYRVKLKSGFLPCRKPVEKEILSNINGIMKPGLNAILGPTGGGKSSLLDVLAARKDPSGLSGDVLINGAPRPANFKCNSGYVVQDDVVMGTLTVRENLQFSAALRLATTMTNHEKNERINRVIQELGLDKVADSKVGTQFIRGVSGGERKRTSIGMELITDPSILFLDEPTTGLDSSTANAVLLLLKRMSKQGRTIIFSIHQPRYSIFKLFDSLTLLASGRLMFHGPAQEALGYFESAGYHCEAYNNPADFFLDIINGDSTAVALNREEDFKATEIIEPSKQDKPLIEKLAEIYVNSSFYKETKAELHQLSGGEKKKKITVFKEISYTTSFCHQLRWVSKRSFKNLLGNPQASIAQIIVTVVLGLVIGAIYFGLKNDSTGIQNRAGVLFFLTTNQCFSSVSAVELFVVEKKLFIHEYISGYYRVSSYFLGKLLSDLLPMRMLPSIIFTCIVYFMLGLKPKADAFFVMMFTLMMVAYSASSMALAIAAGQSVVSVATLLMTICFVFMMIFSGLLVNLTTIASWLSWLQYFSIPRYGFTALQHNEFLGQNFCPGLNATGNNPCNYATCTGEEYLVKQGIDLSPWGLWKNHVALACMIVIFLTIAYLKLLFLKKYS

[11] = Trial 1: treatment-emergent adverse events; assay type: in vivo, human
[12] = predicted; cited from earlier work
[13] = biological target: T3, BCRP; experiment: Prazosin transport in MDCKII BCRP expressing cells; settings: 90-mg TLV dose (200 µmol) assumed completely soluble in 250 ml
[14] = test system: sandwich‐cultured human hepatocytes; settings: cited from earlier work
[15] = cited from earlier work; for Solubility: pH independent
[16] = rosuvastatin + 90 mg tolvaptan vs rosuvastatin alone, n = 14
[17] = trial 2, period 2 (TLV alone, 300 mg q.d.)
[18] = trial 1, period 3 (TLV alone, 300 mg q.d.)

Plasma concentration, mean (SD) ([1]; trial 1, 48 h postdose after 7 days 300 mg TLV q.d.): 7240 (1880) ng/ml
Plasma concentration, mean (SD) [2]: 6430 (2030) ng/ml
Time to steady-state concentrations after start of TLV dosing [3]: ~ 8 weeks
Plasma protein binding [4]: greater than 99.8%
Clinical inhibition of OAT3 [5]: not an inhibitor
Clinical inhibition of OATP1B1 ([7]; at clinically relevant concentrations): not an inhibitor
SMILES: Cc1ccccc1C(=O)Nc1ccc(C(=O)Nc2ccc(Cl)cc2C(=O)CCC(=O)O)c(C)c1 [DM‐4103]
Mean steady-state plasma concentration ([6]; 90 + 30 mg TLV regimen in subjects with ADPKD, ref data on file): ~ 7500 ng/ml and ~15.7 µM
Elimination half-life [6]: ~ 180 h
Plasma concentrations ([6]; first 2 h following a 90 mg TLV dose, ref data on file): less than 100 ng/ml

SMILES: NS(=O)(=O)c1cc(C(=O)O)c(NCc2ccco2)cc1Cl [Furosemide, furosemide]
TEAE incidence: polyuria ([8]; trial 2, period 1 (furosemide alone)): 64.3%
TEAE incidence: headache ([8]; trial 2, period 3 (furosemide in presence of DM-4103)): 21.4%

Tmax ([1]; 5 mg ROS alone, median (minimum-maximum)): 3.50 (2.00–6.00) h
AUC(0-inf) ([1]; human, plasma, oral, 5 mg, AUC∞, 5 mg ROS alone, minimum-maximum, n = 7): 20.3 to 36 ng·h/mL
CL/F ([1]; human, plasma, oral, 5 mg, CL/F, 5 mg ROS alone, minimum-maximum, n = 7): 28.5 to 68.2 mL/min/kg
half-life ([1]; human, plasma, oral, 5 mg, t1/2,z, 5 mg ROS alone, minimum-maximum, n = 7): 2.4 to 4.3 h
Geometric mean ratio (90% CI), AUC∞ ([10]; rosuvastatin + 90 mg tolvaptan vs rosuvastatin alone, n = 6): 1.281^a 1.148–1.429
Geometric mean ratio (90% CI), AUCt [10, 16]: 1.69
Geometric mean ratio (90% CI), Cmax [10, 16]: 1.54
Geometric mean ratio (90% CI), AUC∞ ([7]; rosuvastatin in presence of DM-4103 vs rosuvastatin alone, n = 5): 0.998^b 0.876–1.138
SMILES: CC(C)c1nc(N(C)S(C)(=O)=O)nc(-c2ccc(F)cc2)c1/C=C/[C@@H](O)C[C@@H](O)CC(=O)O [ROS, rosuvastatin]
Share of rosuvastatin uptake accounted for by NTCP alone ([9]; human hepatocyte studies): ~ 35%
TEAE incidence: nausea ([11]; trial 1, period 1 (rosuvastatin)): 12.5%
TEAE incidence: headache ([11]; trial 1, period 3 (rosuvastatin in presence of DM-4103)): 14.3%

Predicted concentration of dose in 250 ml (Igut) [13]: 800 µM
Clinical inhibition of BCRP ([10]; 90 mg TLV with 5 mg rosuvastatin calcium): No clinically relevant inhibition
SMILES: Cc1ccccc1C(=O)Nc1ccc(C(=O)N2CCCC(O)c3cc(Cl)ccc32)c(C)c1 (stereo not shown) [TLV, Tolvaptan]
NTCP inhibition ([9]; IC50 value higher than Cmax): inhibitor of NTCP
TEAE incidence: constipation [8, 17]: 14.3%
TEAE incidence: dizziness [8, 17]: 14.3%
TEAE incidence: dry mouth [8, 17]: 21.4%
TEAE incidence: headache [8, 17]: 14.3%
TEAE incidence: insomnia [8, 17]: 14.3%
TEAE incidence: polyuria [8, 17]: 100%
TEAE incidence: thirst [8, 17]: 92.9%
Liver:blood ratio [12]: 38.76
Safety and tolerability ([6]; 300 mg TLV for 5 days, healthy subjects): safe and well‐tolerated
half-life [6]: about 3.5 h
Accumulation in sandwich-cultured human hepatocytes [14]: at least 10 fold
Increase of in vitro solubility by spray-dried formulation ([15]; TLV tablets, spray-dried technique): up to sevenfold
Solubility [15]: ~ 0.01 g/250 ml
Solubility ([15]; in Discussion): about 0.01 mg/250 ml and ~ 0.09 µM
TEAE incidence: constipation [11, 18]: 14.3%
TEAE incidence: dry mouth [11, 18]: 14.3%
TEAE incidence: nausea [11, 18]: 21.4%
TEAE incidence: pollakiuria [11, 18]: 71.4%
